Active and inactive are the calls of the source. No cut-off for these calls is given here.
Columns and labels:
[1] = system: MDA-MB-231; assay: Effect on Cdk6 mRNA expression in human MDA-MB-231 cells assessed as ratio of Cdk6 to GAPDH expression level at 5 uM after 24 hrs by RT-PCR method (reference value: 1.37); format: functional
[2] = system: MDA-MB-231; assay: Effect on cyclin D1 mRNA expression in human MDA-MB-231 cells assessed as ratio of cyclin D1 to GAPDH expression level at 5 uM after 24 hrs by RT-PCR method (reference value: 0.71); format: functional
[3] = Cell cycle arrest in human MCF7 cells assessed as accumulation at sub-G1 phase at 5 uM after 24 hrs by propidium iodide staining based flow cytometry (reference value: 3.58%); format: functional
[4] = system: MDA-MB-231; assay: Induction of apoptosis in human MDA-MB-231 cells assessed as early apoptotic cells at 5 uM after 24 hrs by Annexin V-FITC/propidium iodide staining based flow cytometry (reference value: 0.5%); format: functional
[5] = system: MDA-MB-231; assay: Effect on Bid gene expression in human MDA-MB-231 cells assessed as ratio of Bid to beta-actin expression level at 5 uM after 24 hrs by RT-PCR method (reference value: 0.17); format: functional
[6] = system: MDA-MB-231; assay: Effect on p21 mRNA expression in human MDA-MB-231 cells assessed as ratio of p21 to GAPDH expression level at 5 uM after 24 hrs by RT-PCR method (reference value: 0.02); format: functional
[7] = Cell cycle arrest in human MCF7 cells assessed as accumulation at G0/G1 phase at 5 uM after 24 hrs by propidium iodide staining based flow cytometry (reference value: 83.25%); format: functional
[8] = system: MDA-MB-231; assay: Inhibition of Akt phosphorylation in human MDA-MB-231 cells after 48 hrs by immunoblot analysis; format: cell-based
[9] = Antiproliferative activity against human MCF7 cells after 48 hrs by MTT assay; format: functional, cell-based; settings: MCF7, 48 h
[10] = system: MDA-MB-231; assay: Ratio of Bcl-2 to Bax gene expression in human MDA-MB-231 cells at 5 uM after 24 hrs by RT-PCR method (reference value: 0.03); format: functional
[11] = system: MDA-MB-231; assay: Induction of apoptosis in human MDA-MB-231 cells assessed as late apoptotic cells at 5 uM after 24 hrs by Annexin V-FITC/propidium iodide staining based flow cytometry (reference value: 1.8%); format: functional
[12] = system: MDA-MB-231; assay: Effect on cyclin E mRNA expression in human MDA-MB-231 cells assessed as ratio of cyclin E to GAPDH expression level at 5 uM after 24 hrs by RT-PCR method (reference value: 0.13); format: functional
[13] = species on record: Homo sapiens; assay: Inhibition of Akt in human MDA-MB-231 cells assessed as ratio of phosphorylated Akt to GAPDH expression level at 5 uM after 48 hrs by immunoblot analysis (reference value: 0.33 to 0.81); format: cell-based
[14] = system: MCF7; assay: Induction of apoptosis in human MCF7 cells assessed as late apoptotic cells at 5 uM after 24 hrs by Annexin V-FITC/propidium iodide staining based flow cytometry (reference value: 2.3%); format: functional
[15] = Cell cycle arrest in human MCF7 cells assessed as accumulation at S phase at 5 uM after 24 hrs by propidium iodide staining based flow cytometry (reference value: 4.23%); format: functional
[16] = system: MDA-MB-231; assay: Effect on p27 mRNA expression in human MDA-MB-231 cells assessed as ratio of p27 to GAPDH expression level at 5 uM after 24 hrs by RT-PCR method (reference value: 0.23); format: functional
[17] = system: MDA-MB-231; assay: Inhibition of Akt in human MDA-MB-231 cells after 48 hrs by ELISA; format: cell-based
[18] = species on record: Homo sapiens; assay: Inhibition of Akt in human MDA-MB-231 cells assessed as ratio of phosphorylated GSK-3beta to GAPDH expression level at 5 uM after 48 hrs by immunoblot analysis (reference value: 0.14 to 1.50); format: cell-based
[19] = species on record: Homo sapiens; assay: Inhibition of Akt in human MDA-MB-231 cells assessed as ratio of phosphorylated GSK-3beta to GAPDH expression level at 10 uM after 48 hrs by immunoblot analysis (reference value: 0.14 to 1.50); format: cell-based
[20] = Cell cycle arrest in human MCF7 cells assessed as accumulation at G2/M phase at 5 uM after 24 hrs by propidium iodide staining based flow cytometry (reference value: 9.29%); format: functional
[21] = system: MCF7; assay: Induction of apoptosis in human MCF7 cells assessed as early apoptotic cells at 5 uM after 24 hrs by Annexin V-FITC/propidium iodide staining based flow cytometry (reference value: 1.6%); format: functional
[22] = system: MDA-MB-231; assay: Effect on p53 gene expression in human MDA-MB-231 cells assessed as ratio of p53 to beta-actin expression level at 5 uM after 24 hrs by RT-PCR method (reference value: 0.22); format: functional
[23] = species on record: Homo sapiens; assay: Inhibition of Akt in human MDA-MB-231 cells assessed as ratio of phosphorylated Akt to GAPDH expression level at 10 uM after 48 hrs by immunoblot analysis (reference value: 0.33 to 0.81); format: cell-based
[24] = Antiproliferative activity against human MDA-MB-231 cells after 48 hrs by MTT assay; format: functional, cell-based; settings: MDA-MB-231, 48 h
[25] = system: MDA-MB-231; assay: Effect on Cdk2 mRNA expression in human MDA-MB-231 cells assessed as ratio of Cdk2 to GAPDH expression level at 5 uM after 24 hrs by RT-PCR method (reference value: 0.26); format: functional
[26] = Antiproliferative activity against human mammary epithelial cells after 48 hrs by MTT assay; format: cell-based, Epithelial cell
[27] = Safety index, ratio of compound IC50 to colchicine IC50 for human mammary epithelial cells; format: ADME, cell-based, Epithelial cell; settings: read-out: Ratio IC50
[28] = species on record: Homo sapiens; assay: Inhibition of Akt in human MDA-MB-231 cells assessed as ratio of phosphorylated GSK-3beta to GAPDH expression level at 2 uM after 48 hrs by immunoblot analysis (reference value: 0.14 to 1.50); format: cell-based
[29] = system: MCF7; assay: Induction of apoptosis in human MCF7 cells assessed as necrotic cells at 5 uM after 24 hrs by Annexin V-FITC/propidium iodide staining based flow cytometry (reference value: 3.7%); format: functional
[30] = system: MDA-MB-231; assay: Induction of apoptosis in human MDA-MB-231 cells assessed as necrotic cells at 5 uM after 24 hrs by Annexin V-FITC/propidium iodide staining based flow cytometry (reference value: 1.3%); format: functional
[31] = species on record: Homo sapiens; assay: Inhibition of Akt in human MDA-MB-231 cells assessed as ratio of phosphorylated Akt to GAPDH expression level at 2 uM after 48 hrs by immunoblot analysis (reference value: 0.33 to 0.81); format: cell-based
[32] = species on record: Homo sapiens; assay: Inhibition of Akt in human MDA-MB-231 cells assessed as ratio of phosphorylated GSK-3beta to GAPDH expression level at 100 nM after 48 hrs by immunoblot analysis (reference value: 0.14 to 1.50); format: cell-based
[33] = species on record: Homo sapiens; assay: Inhibition of Akt in human MDA-MB-231 cells assessed as ratio of phosphorylated Akt to GAPDH expression level at 100 nM after 48 hrs by immunoblot analysis (reference value: 0.33 to 0.81); format: cell-based
[34] = Cell cycle arrest in human MDA-MB-231 cells assessed as increase in cell accumulation at G2/M phase at 5 uM after 24 hrs by propidium iodide staining based flow cytometry; format: functional
[35] = system: MDA-MB-231; assay: Inhibition of Akt in human MDA-MB-231 cells assessed as reduction in GSK-3beta phosphorylation after 48 hrs by immunoblot analysis; format: cell-based
[36] = system: MCF7; assay: Induction of apoptosis in human MCF7 cells assessed as increase in necrotic cells at 5 uM after 24 hrs by Annexin V-FITC/propidium iodide staining based flow cytometry relative to colchicine; format: functional
[37] = system: MCF7; assay: Inhibition of Akt in human MCF7 cells assessed as GSK-3beta phosphorylation reduction in after 48 hrs by immunoblot analysis; format: cell-based
[38] = system: MCF7; assay: Inhibition of Akt phosphorylation in human MCF7 cells after 48 hrs by immunoblot analysis; format: cell-based
[39] = Cell cycle arrest in human MDA-MB-231 cells assessed as increase in cell accumulation at sub-G1 phase at 5 uM after 24 hrs by propidium iodide staining based flow cytometry; format: functional
[40] = Homo sapiens, Epithelial cell, 48 h, read-out: IC50

Row | SMILES | Ratio [1] | Ratio [2] | Activity [3] | Activity [4] | Ratio [5] | Ratio [6] | Activity [7] | IC50 [9] | Ratio [10] | Activity [11] | Ratio [12] | Ratio [13] | Activity [14] | Activity [15] | Ratio [16] | Ratio [18] | Activity [20] | Activity [21] | Ratio [22] | IC50 [24] | further results
1 | CO[C@@H]1C(=O)N(C/C(C#N)=C/c2ccccc2)[C@@H]1c1ccc(C)cc1 | 0.51 | 0.64 | 2.22% | 1.3% | 0.32 | 0.08 | 83% | 9.99 µM | 0.02 | 4.1% | 0.16 | 0.09 | 12.8% | 4.15% | 0.24 | 0.15 | 9.43% | 9% | 0.17 | 9.27 µM | inhibition [8]: Dose-dependent effect; inhibition [17]: Dose-dependent effect; Ratio [19]: 0.17; Ratio [23]: 0.06; Ratio [25]: 0.22; IC50 ([26]; epithelial cell): Non-Toxic; selectivity ratio [27]: 10; Ratio [28]: 0.04; Activity [29]: 1.9%; Activity [30]: 1.4%; Ratio [31]: 0.35
2 | COC[C@H]1OC(=O)c2coc3c2[C@@]1(C)C1=C(C3=O)[C@@H]2CCC(=O)[C@@]2(C)C[C@H]1OC(C)=O |  |  |  |  |  |  |  |  |  |  |  |  |  |  |  |  |  |  |  |  | Ratio [32]: 0.61; Ratio [33]: 0.01
3 | COc1cc2c(c(OC)c1OC)-c1ccc(OC)c(=O)cc1[C@@H](NC(C)=O)CC2 [COLCHICINE] | 1.56 | 1.5 | 7.4% | 2.3% | 0.42 | 0.6 | 66.2% | 0.072 µM | 0.1 | 5.8% | 0.19 | 0.23 to 0.44 | 1.8% | 10.3% | 0.6 | 0.12 to 1.45 | 16.2% | 1% | 0.3 | 3.55 µM | Activity [34]: Active; Ratio [25]: 0.39; IC50 [26, 40]: 9.26 µM; Activity [29]: 6.5%; Activity [30]: 0.9%
4 | CO[C@@H]1C(=O)N(C/C(C#N)=C/c2ccccc2)[C@@H]1c1ccc(F)cc1 | 1.3 | 1.59 | 2.83% | 1.1% | 0.39 | 0.09 | 83.2% | 8.31 µM | 0.03 | 4.7% | 0.2 | 0.45 | 2.3% | 5.15% | 0.33 | 0.22 | 9.68% | 1.7% | 0.21 | 9.24 µM | inhibition [35]: Dose-dependent effect; inhibition [17]: Dose-dependent effect; Ratio [19]: 0.2; Ratio [23]: 0.58; Ratio [25]: 0.32; IC50 ([26]; epithelial cell): Non-Toxic; selectivity ratio [27]: 10; Ratio [28]: 0.42; Activity [29]: 6.9%; Activity [30]: 1.6%; Ratio [31]: 0.42
5 | CCOC(=O)/C(=C/c1ccccc1)CN1C(=O)[C@@H](OC)[C@H]1c1ccccc1Br | 0.19 | 0.47 | 12.9% | 2.2% | 0.56 | 0.03 | 71.2% | 5.79 µM | 0.01 | 5.4% | 0.03 | 0.03 | 6.7% | 5.17% | 0.41 | 0.61 | 9.11% | 4% | 0.25 | 6.86 µM | inhibition [8]: Dose-dependent effect; fold change (FC) [36]: 2; inhibition [35]: Dose-dependent effect; inhibition [17]: Dose-dependent effect; inhibition [37]: Dose-dependent effect; inhibition [38]: Dose-dependent effect; Ratio [19]: 0.58; Ratio [23]: 0.01; Ratio [25]: 0.18; Activity [39]: Active; IC50 [26, 40]: 66.6 µM; selectivity ratio [27]: 10; Ratio [28]: 1.16; Activity [29]: 13.1%; Activity [30]: 0.9%; Ratio [31]: 0.16
